Measurements taken from patent publication US6355474B1, “Immunostimulatory and metastasis inhibiting fermented vegetal material” (priority 1997, dated 2002).

Assays:
[1] = literature; cited from earlier work
[2] = Stability (storage) tests via 2.6-DMBQ / 2-MBQ concentration by HPLC; format: physicochemical
Experimental: The decomposition of the material according to the invention was checked via the chanqes in concentration of the 2.6-dimethoxy-p-benzoquinone. We conducted storage experiments at three different temperatures (room temperature 20° C. 40° C. and 60° C.) The lyophilisate—about 1 g—as stored in test-tubes which were sealed air-tight. The duration of the experiments was 8 weeks, every week three parallel measurements were conducted on samples taken from all three series kept at different temperatures. The quantitative analysis of benzoquinone derivatives was conducted by HPLC.

malignant tumour cells = conditions: literature; cited from earlier work

| Compound | fungicidal and bacteriostatic effect [1] | decomposition of 2-methoxy-p-benzoquinone in the stored material ([2]; room temperature) | decomposition of 2-methoxy-p-benzoquinone in the stored material ([2]; samples kept at 40 or 60° C.) | cytotoxicity for malignant tumour cells (malignant tumour cells) |
| --- | --- | --- | --- | --- |
| COC1=CC(=O)C=CC1=O [2-MBQ, 2-methoxy-p-benzoquinone] | fungicidal and bacteriostatic effect | remained unchanged | could not be shown after one week of storage | – |
| COC1=CC(=O)C=C(OC)C1=O [2.6-DMBQ, 2.6-dimethoxy-p-benzoquinone] | fungicidal and bacteriostatic effect | – | – | cytotoxic |
